According to US5607919A, “Anti-microbial proteins” (Sandoz Ltd., priority 1993, dated 1997):

Columns and labels:
[1] = system: Colletotrichum graminicola; assay: Anti-fungal activity against corn pathogens, microtiter spore assay; format: cell-based; conditions: 120 h; ni = did not inhibit fungal growth
Diplodia maydis = assay: as above; format: cell-based; conditions: 120 h; ni = did not inhibit fungal growth
Bipolaris maydis = assay: as above; format: cell-based; conditions: 120 h; ni = did not inhibit fungal growth
Procedure: (§1) The AX proteins according to the present invention are assessed for their anti-fungal activity against a number of corn pathogens. Concerning the results depicted in Tables 1 and 2, the assay of the AX proteins in respect of the corn pathogens is performed as follows. Five μl of a solution containing the proteins at the indicated concentrations are aseptically transferred into a well of a sterile, round-bottomed microtiter plate. All treatments are replicated once. Un-inoculated and inoculated culture media minus test protein solution are routinely included as controls. Spores (100-150) are aseptically added to each sample in a 5.0 μl aliquot of double strength Potato Dextrose Broth (PDB).
(§2) Following gentle agitation to mix the protein sample and spore suspension, a double layer of parafilm is wrapped around the lid/plate junction in order to minimize desiccation and the thus wrapped microtiter plate is incubated at 19°±0.2° C. with a 16 h photoperiod.
(§3) Individual wells are scored for spore germination and mycelial growth every 24 h. At the end of 120 h the level of anti-fungal activity is determined.

[2] = system: Exserohilum turcicum race 1; assay: as above; format: cell-based; conditions: 120 h; ni = did not inhibit fungal growth
Procedure: as §1, §2, §3

[3] = system: Exserohilum turcicum race 2; format: cell-based; conditions: 120 h; ni = did not inhibit fungal growth
Fusarium graminearum = format: cell-based; conditions: 120 h; ni = did not inhibit fungal growth
Fusarium moniliforme = assay: Anti-fungal activity against corn pathogens, microtiter spore assay; format: cell-based; conditions: 120 h; ni = did not inhibit fungal growth
Gibberella zeae = format: cell-based; conditions: 120 h; ni = did not inhibit fungal growth
Exserohilum turcicum = assay: Anti-fungal activity against corn pathogens, microtiter spore assay (Table 2, race not given); format: cell-based; conditions: 120 h; ni = did not inhibit fungal growth
Monilinia fructigena = assay: Mycelial growth in agar droplets coated with test protein; format: cell-based; conditions: protein concentration 20 μg/ml; 5 days; ni = did not inhibit
Cochliobolus sativus = assay: as above; format: cell-based; conditions: protein concentration 20 μg/ml; 5 days; ni = did not inhibit
[4] = system: Pseudocercosporella herpotrichoides; assay: as above; format: cell-based; conditions: 5 days
Pyricularia oryzae = format: cell-based; conditions: protein concentration 20 μg/ml; 5 days; ni = did not inhibit
Rhizoctonia solani = assay: Mycelial growth in agar droplets coated with test protein; format: cell-based; conditions: 5 days
Fusarium culmorum = assay: as above; format: cell-based; conditions: protein concentration 20 μg/ml; 5 days; ni = did not inhibit
Procedure: Concerning the results shown in Table 3, the assay of the AX and WIN N proteins in respect of the disclosed pathogens is performed as follows. Mycelium from the disclosed fungi are dispersed in a drop of molten agar which is then solidified. The solid agar droplets comprising the encapsulated mycelia are then coated with the test protein in the specified amount. Following incubation for 5 days under moist conditions the amount of mycelial growth is determined in comparison with controls, in which the agar droplets comprising the fungal roycelia are not coated with test protein. The results presented in […]

Leptosphaeria nodorum = assay: as above; format: cell-based; conditions: protein concentration 20 μg/ml; 5 days; ni = did not inhibit
Botrytis cinerea = assay: as above; format: cell-based; conditions: protein concentration 20 μg/ml; 5 days; ni = did not inhibit
C. beticola = assay: Inhibition of fungal growth in 96 well micro-titre plates at 620 nm, spores of C. beticola; format: cell-based, Cercospora beticola; conditions: for 50% growth inhibition (I50) / IC50: C. beticola, after 72 hours incubation; for IC50: conversion of the ug/ml value, read-out: 50% growth inhibition (I50); for morphology of the fungus: FIG. 4, AX2 8 μg/ml, WIN 28 μg/ml; for rate of fungal hyphal extension: compared to controls
[5] = protein concentration 20 μg/ml, ni = did not inhibit

| Molecule | Minimum inhibitory concentration [1] | Protein concentration providing more than 50% growth inhibition [1] | Minimum inhibitory concentration (Diplodia maydis) | Protein concentration providing more than 50% growth inhibition (Diplodia maydis) | Minimum inhibitory concentration (Bipolaris maydis) | Protein concentration providing more than 50% growth inhibition (Bipolaris maydis) | Minimum inhibitory concentration [2] | Minimum inhibitory concentration [3] | Minimum inhibitory concentration (Fusarium graminearum) | Protein concentration providing more than 50% growth inhibition (Fusarium graminearum) | Minimum inhibitory concentration (Fusarium moniliforme) | Protein concentration providing more than 50% growth inhibition (Fusarium moniliforme) | Minimum inhibitory concentration (Gibberella zeae) | Protein concentration providing more than 50% growth inhibition (Gibberella zeae) | Protein concentration providing more than 50% growth inhibition (Exserohilum turcicum) | Growth inhibition (Monilinia fructigena) | Growth inhibition (Cochliobolus sativus) | Growth inhibition (Pyricularia oryzae) | Growth inhibition (Fusarium culmorum) | Growth inhibition (Leptosphaeria nodorum) | other results |
| --- | --- | --- | --- | --- | --- | --- | --- | --- | --- | --- | --- | --- | --- | --- | --- | --- | --- | --- | --- | --- | --- |
| AX1: anti-microbial protein from sugar beet leaves infected with Cercospora beticola; residues 29-74 in SEQ ID No. 2, 46 amino acids (AICKKPSKFFKGACGRDADCEKACDQENWPGGVCVPFLRCECQRSC) | 50 µg/mL | 50 µg/mL | 11 µg/mL | 11 µg/mL | 20 µg/mL | 20 µg/mL | 11 µg/mL | 33 µg/mL | 33 µg/mL | 33 µg/mL | ni | ni | ni | ni | 33 µg/mL | 80% | 30% | ni | ni | ni | Growth inhibition ([4]; protein concentration 20 μg/ml): 30%; Growth inhibition (Rhizoctonia solani; [5]): ni; Growth inhibition (Botrytis cinerea): ni |
| AX2: anti-microbial protein from sugar beet leaves infected with Cercospora beticola; residues 29-74 in SEQ ID No. 5, 46 amino acids (ATCRKPSMYFSGACFSDTNCQKACNREDWPNGKCLVGFKCECQRPC) | 50 µg/mL | 50 µg/mL | ni | ni | 30 µg/mL | 33 µg/mL | 98 µg/mL | ni | 33 µg/mL | 33 µg/mL | ni | ni | ni | ni | ni | 80% | 30% | 20% | 10% | 10% | 50% growth inhibition (I50) (C. beticola): 2 µg/mL; IC50 (C. beticola): ~0.5 µM; morphology of the fungus (C. beticola): markedly changed; growth in vitro of C. beticola (C. beticola; FIGS. 3A and 3B, result in words): greater than that of AX1; rate of fungal hyphal extension (C. beticola): profoundly slow; fungicidal activity against C. beticola (C. beticola; result in words): do not appear to exhibit fungicidal activity; Growth inhibition ([4]; protein concentration 20 μg/ml): 30%; Growth inhibition (Rhizoctonia solani; protein concentration 40 μg/ml): 10%; Growth inhibition (Botrytis cinerea): 10% |
| WIN N: chitin-binding WIN protein purified from barley grain or stressed barley leaf; residues 22-146 in SEQ ID No. 11 (protein) QQANNVRATYHYYRPAQNNWDLGAPAVSAYCATWDASKPLSWRSKYGWTAFCGPAGPRGQAACGKCLRVTNPATGAQITARIVDQCANGGLDLDWDTVFTKIDTNGIGYQQGHLNVNYQFVDCRD | ni | ni | 64 µg/mL | 64 µg/mL | ni | ni | ni | 193 µg/mL | ni | ni | ni | ni | ni | ni | 193 µg/mL | ni | ni | ni | ni | ni | 50% growth inhibition (I50) (C. beticola): 160 µg/mL; IC50 (C. beticola): ~11 µM; morphology of the fungus (C. beticola): markedly changed; rate of fungal hyphal extension (C. beticola): profoundly slow; fungicidal activity against C. beticola (C. beticola; result in words): do not appear to exhibit fungicidal activity; Growth inhibition ([4]; protein concentration 40 μg/ml): 30%; Growth inhibition (Rhizoctonia solani; [5]): ni; Growth inhibition (Botrytis cinerea): ni |
